Assay results reported in patent publication US12435068B2, “Anthelmintic compounds” (Elanco Animal Health GmBh, priority 2018, dated 2025).
In brackets after ≈: the same amount, converted by molar mass.

Tests used:
[1] = system: Dirofilaria immitis microfilariae; experiment: In Vitro Assay 2: Dirofilaria immitis microfilariae (DIROIM L1) motility; format: cell-based; conditions: 72 h, read-out: EC50 ppm
C. elegans Slo-1a = C. elegans Slo-1a (Caenorhabditis elegans, UniProt Q95V25)
Chain of C. elegans Slo-1a (Q95V25 whole entry): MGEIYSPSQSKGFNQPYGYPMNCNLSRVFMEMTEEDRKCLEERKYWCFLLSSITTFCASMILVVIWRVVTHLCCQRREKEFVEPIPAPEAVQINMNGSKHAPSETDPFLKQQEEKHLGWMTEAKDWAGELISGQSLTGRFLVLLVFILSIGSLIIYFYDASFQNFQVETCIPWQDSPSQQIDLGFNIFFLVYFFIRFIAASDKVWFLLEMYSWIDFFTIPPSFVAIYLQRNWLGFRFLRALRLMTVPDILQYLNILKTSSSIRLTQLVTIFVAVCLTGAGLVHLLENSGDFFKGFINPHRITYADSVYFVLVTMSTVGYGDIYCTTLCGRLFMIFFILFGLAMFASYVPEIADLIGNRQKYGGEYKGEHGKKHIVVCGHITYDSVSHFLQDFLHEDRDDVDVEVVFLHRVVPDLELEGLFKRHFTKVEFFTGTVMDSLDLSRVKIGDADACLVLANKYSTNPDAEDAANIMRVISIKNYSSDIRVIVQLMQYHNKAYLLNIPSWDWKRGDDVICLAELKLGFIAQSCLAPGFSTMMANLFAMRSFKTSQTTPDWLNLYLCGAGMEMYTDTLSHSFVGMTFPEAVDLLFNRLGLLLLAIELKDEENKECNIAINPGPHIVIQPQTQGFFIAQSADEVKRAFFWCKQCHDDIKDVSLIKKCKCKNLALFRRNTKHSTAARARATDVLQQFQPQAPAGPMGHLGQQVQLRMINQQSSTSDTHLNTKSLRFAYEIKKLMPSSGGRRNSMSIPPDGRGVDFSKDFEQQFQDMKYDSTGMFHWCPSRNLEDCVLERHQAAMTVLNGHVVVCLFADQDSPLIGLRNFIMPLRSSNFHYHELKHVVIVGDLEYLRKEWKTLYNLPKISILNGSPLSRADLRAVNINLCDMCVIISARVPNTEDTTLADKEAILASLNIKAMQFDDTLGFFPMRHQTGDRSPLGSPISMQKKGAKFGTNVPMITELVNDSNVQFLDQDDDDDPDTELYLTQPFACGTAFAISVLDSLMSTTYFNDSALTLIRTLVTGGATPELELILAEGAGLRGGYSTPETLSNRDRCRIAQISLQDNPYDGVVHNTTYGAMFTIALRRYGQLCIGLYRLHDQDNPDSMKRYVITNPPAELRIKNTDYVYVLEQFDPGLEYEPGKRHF
Procedure: Cells were cultured at 37° C. and 5% CO2 in MEMalpha with Gutamax I (Invitrogen, Nr.: 32571), supplemented with 10% (v/v) heat inactivated fetal bovine serum (Invitrogen, Nr.: 10500), G418 (1 mg/ml, Invitrogen, Nr.: 10131). Cells were detached using Accutase (Sigma, Nr.: A6964).
Membrane Potential Measurements
Laboratory compound testing was performed on 384-well microtiter plates (MTPs, Greiner, Nr.: 781092). 8000 cells/well were plated onto 384-well MTPs and cultured for 20 to 24 hours at 37° C. and 5% CO2. After removal of the cell culture medium, the cells were washed once with tyrode (150 mM NaCl, 0.3 mM KCl, 2 mM CaCl2, 1 mM MgCl2, 0.8 mM NaH2PO4, 5 mM Glucose, 28 mM Hepes, pH 7.4) and then loaded with the voltage sensitive dye of the Membrane Potential Assay Kit diluted in tyrode for 1 h at room temperature.
After starting the measurement of fluorescence using a FLIPR Tetra (Molecular Devices, Exc. 510-545 nm, Emm. 565-625 nm), test compounds were added followed by the addition of KCl tyrode (final assay concentration: 70 mM KCl, 2 mM CaCl2, 1 mM MgCl2, 0.8 mM NaH2PO4, 5 mM Glucose, 28 mM Hepes, pH 7.4, including the voltage sensitive dye). The measurement was completed after 7 minutes.

Row | SMILES | EC50 [1] [µg/mL] | EC50 (C. elegans Slo-1a) [nM]
1 | CC(C)c1c(C(=O)N[C@H]2CCc3ccccc32)ccc2c1nnn2-c1ccc(Cl)cc1 [Example Compound S4-6, 1-(4-Chlorophenyl)-N-[(1S)-2,3-dihydro-1H-inden-1-yl]-4-(propan-2-yl)-1H-benzotriazole-5-carboxamide] | > 2 | 251
2 | O=C(N[C@H]1CCOc2ccccc21)c1sc2c(-c3cc(Cl)cc(Cl)c3)ccc(F)c2c1N1CCOCC1 [Example Compound S1-18, 7-(3,5-Dichlorophenyl)-N-[(4S)-3,4-dihydro-2H-chromen-4-yl]-4-fluoro-3-(morpholin-4-yl)-1-benzothiophene-2-carboxamide] | 0.27 (≈ 0.484 µM) | 126
3 | CC(C)n1c(C(=O)N[C@H]2CCOc3ccccc32)cc2c(-c3cc(Cl)cc(Cl)c3)cccc21 [Example Compound S2-5, 4-(3,5-Dichlorophenyl)-N-[(4S)-3,4-dihydro-2H-chromen-4-yl]-1-(propan-2-yl)-1H-indole-2-carboxamide] | 0.06 (≈ 0.125 µM) | 25.1
4 | O=C(N[C@H]1CCc2ccccc21)c1ccc2nc(-c3ccccc3Cl)cnc2c1 [Example Compound S9-3, 2-(2-Chlorophenyl)-N-[(1S)-2,3-dihydro-1H-inden-1-yl]quinoxaline-6-carboxamide] | 0.61 (≈ 1.53 µM) | 100
5 | CN(C)c1c(C(=O)N[C@H]2CCOc3ccccc32)sc2c(-c3cc(Cl)cc(Cl)c3)cccc12 [Example Compound S1-5, 7-(3,5-Dichlorophenyl)-N-[(4S)-3,4-dihydro-2H-chromen-4-yl]-3-(dimethylamino)-1-benzothiophene-2-carboxamide] | 0.25 (≈ 0.503 µM) | 25.1
6 | CC(C)c1c(C(=O)N[C@H]2CCOc3ccccc32)nc2c(-c3cccc(Cl)c3Cl)cccn12 [Example Compound S3-1, 8-(2,3-Dichlorophenyl)-N-[(4S)-3,4-dihydro-2H-chromen-4-yl]-3-(propan-2-yl)imidazo[1,2-a]pyridine-2-carboxamide] | 0.63 (≈ 1.31 µM) | 251
7 | O=C(N[C@H]1CCOc2ccccc21)c1c(N2CCOCC2)c2cccc(-c3cc(Cl)cc(Cl)c3)c2[nH]c1=O [Example Compound S8a-6, 8-(3,5-Dichlorophenyl)-N-[(4S)-3,4-dihydro-2H-chromen-4-yl]-4-(morpholin-4-yl)-2-oxo-1,2-dihydroquinoline-3-carboxamide] | 0.64 (≈ 1.16 µM) | 39.8
8 | O=C(N[C@H]1CCOc2ccccc21)c1ccc2nc(-c3cccc(C(F)(F)F)c3Cl)cnc2c1 [Example Compound S9-1, 2-[2-Chloro-3-(trifluoromethyl)phenyl]-N-[(4S)-3,4-dihydro-2H-chromen-4-yl]quinoxaline-6-carboxamide] | 0.52 (≈ 1.07 µM) | 20
9 | O=C(N[C@H]1CCOc2ccccc21)c1ccc2c(-c3cccc(Cl)c3Cl)nccc2c1 [Example Compound S6-2, 1-(2,3-Dichlorophenyl)-N-[(4S)-3,4-dihydro-2H-chromen-4-yl]isoquinoline-6-carboxamide] | > 2 | 794
10 | Cc1nn(-c2c(F)cccc2F)c2ncc(C(=O)N[C@H]3CCOc4ccccc43)c(N(C)C)c12 [Example Compound S4-3, 1-(2,6-Difluorophenyl)-N-[(4S)-3,4-dihydro-2H-chromen-4-yl]-4-(dimethylamino)-3-methyl-1H-pyrazolo[3,4-b]pyridine-5-carboxamide] | 1.82 (≈ 3.93 µM) | 158
11 | CN(C)c1c(C(=O)N[C@H]2CCOc3ccccc32)sc2c(-c3cccc(Cl)c3Cl)cccc12 [Example Compound S1-7, 7-(2,3-Dichlorophenyl)-N-[(4S)-3,4-dihydro-2H-chromen-4-yl]-3-(dimethylamino)-1-benzothiophene-2-carboxamide] | 0.11 (≈ 0.221 µM) | 10
12 | CC(C)c1c(C(=O)N[C@H]2CCc3ccccc32)ccc2c1nnn2-c1ccccc1 [Example Compound S4-7, N-[(1S)-2,3-Dihydro-1H-inden-1-yl]-1-phenyl-4-(propan-2-yl)-1H-benzotriazole-5-carboxamide] | > 2 | 2000
